Laboratory results published in patent publication US11000601B2, “Conjugated biological molecules, pharmaceutical compositions and methods” (OBI Pharma, Inc., priority 2016, dated 2021).
Where “and” joins values, the source holds several entries; their conditions need not be identical. Equal entries are not always repeated. Marks after values point to notes of the source that are not given here. Square brackets hold non-standard residues; d marks the D form. Peptide text beside a SMILES is read from it. * marks the point of attachment. Dolaproine = CO[C@@H]([C@@H]1CCCN1)[C@@H](C)C(=O)O; Dil = CC[C@H](C)[C@H](NC)[C@@H](CC(=O)O)OC; X1 = C[C@@H](N*)[C@@H](O)c1ccccc1; NMeV = CN[C@H](C(=O)O)C(C)C

System: NCI-N87 (ATCC CRL-5822) human gastric carcinoma
Assay: Xenograft tumor model of human gastric carcinoma NCI-N87 in female nu/nu mice: tumor volume, T/C, TGI
Assay type: in vivo, mouse
Details: for Tumor Volume (mm^3), Mean / Tumor Volume (mm^3), individual animals / % T/C / % TGI / Tumor Volume, Mean / Tumor Volume, individual animal: 0.191 mg/kg × 4 IP once weekly; for Tumor Volume (mm^3), individual animals / Tumor Volume, individual animal: 0.191 mg/kg
Procedure: In a xenograft tumor model of human gastric carcinoma, viable NCI-N87 (ATCC CRL-5822) cells were subcutaneously (SC) implanted (2.5×10^6 cells/mL with matrigel (1:1) at 0.2 mL/mouse) into the right flank of female nu/nu mice. Tumor implanted mice were divided into seven treatment groups, each group containing eight animals, and one group containing five animals, and dose administrations were initiated one day after cell implantation (denoted as Day 1).
Viable human gastric carcinoma NCI-N87 (ATCC CRL-5822) cell line was purchased and cultured in Eurofins Panlabs Taiwan, Ltd. The cells were cultured in RPMI-1640 medium containing 10% fetal bovine serum (FBS) at 37° C. in 5% CO2 incubator and implanted subcutaneously in the right flank of each mouse.
Female nude (nu/nu) mice aged 5-6 weeks obtained from BioLasco Taiwan (under Charles River Laboratories Licensee) were used. The animals were housed in individually ventilated cages (IVC, 36 Mini Isolator system). The allocation for 3 animals was 27×20×14 in cm. All animals were maintained in a hygienic environment under controlled temperature (20-24° C.) and humidity (30%-70%) with 12-hour light/dark cycle. Free access to standard lab diet [MFG (Oriental Yeast Co., Ltd., Japan)] and autoclaved tap water in bottles were granted. All aspects of this work including housing, experimentation, and animal disposal were performed in general accordance with the “Guide for the Care and Use of Laboratory Animals: Eighth Edition” (National Academies Press, Washington, D.C., 2011) in our AAALAC-accredited laboratory animal facility. In addition, the animal care and use protocol was reviewed and approved by the IACUC at Eurofins Panlabs Taiwan, Ltd.
The tumor volumes, body weights, mortality, and signs of overt toxicity were monitored and recorded twice weekly for 100 days. Tumor growth inhibition was calculated as T/C (treatment/control)×100%. A T/C value≤42% compared to that of the vehicle control group was considered significant anti-tumor activity. Two-way ANOVA followed by Bonferroni test was used to ascertain the statistically significant significance of groups compared to respective vehicle control (*p<0.05).

`CC[C@H](C)[C@@H]([C@@H](CC(=O)N1CCC[C@H]1[C@H](OC)[C@@H](C)C(=O)N[C@H](C)[C@@H](O)c1ccccc1)OC)N(C)C(=O)[C@@H](NC(=O)[C@@H](NC)C(C)C)C(C)C` [MMAE, monomethyl auristatin E] (H-[NMeV]V[Dil][Dolaproine]-X1) was tested, and the “maximum percent TGI” value (0.191 mg/kg IP once weekly for four weeks, Day 53) was 53%, the “anti-tumor activity (in words)” value (0.191 mg/kg IP once weekly for four weeks, over the course of the study) was “moderate anti-tumor activity” and the “Tumor Volume (mm^3), Mean” value (Day 1) was 96 mm^3. The “Tumor Volume (mm^3), individual animals” value (Day 1) was 61 mm^3 and 89 mm^3 and 83 mm^3 and 88 mm^3 (2×) and 125 mm^3 and 110 mm^3 and 121 mm^3, the “% T/C” value (Day 4) was 88% and the “% TGI” value (Day 4) was 12%. The “Tumor Volume (mm^3), Mean” value (Day 4) was 109 mm^3, the “Tumor Volume (mm^3), individual animals” value (Day 4) was 106 mm^3 and 102 mm^3 and 115 mm^3 (3×) and 104 mm^3 and 109 mm^3 and the “% T/C” value (Day 8) was 83%. For the same compound, the “% TGI” value (Day 8) was 17%, the “Tumor Volume (mm^3), Mean” value (Day 8) was 122 mm^3 and the “Tumor Volume (mm^3), individual animals” value (Day 8) was 117 mm^3 and 142 mm^3 and 127 mm^3 and 115 mm^3 and 110 mm^3 and 125 mm^3 and 119 mm^3. For the same compound, the “% T/C” value (Day 11) was 59%, the “% TGI” value (Day 11) was 41% and the “Tumor Volume (mm^3), Mean” value (Day 11) was 165 mm^3. The “Tumor Volume (mm^3), individual animals” value (Day 11) was 162 mm^3 and 158 mm^3 and 137 mm^3 and 169 mm^3 and 174 mm^3 and 187 mm^3 and 166 mm^3, the “% T/C” value (Day 15) was 60% and the “% TGI” value (Day 15) was 40%. The “Tumor Volume (mm^3), Mean” value (Day 15) was 189 mm^3, the “Tumor Volume (mm^3), individual animals” value (Day 15) was 153 mm^3 and 189 mm^3 (2×) and 178 mm^3 and 231 mm^3 and 175 mm^3 and 208 mm^3 and the “% T/C” value (Day 18) was 57%. The “% TGI” value (Day 18) was 43%, the “Tumor Volume (mm^3), Mean” value (Day 18) was 218 mm^3 and the “Tumor Volume (mm^3), individual animals” value (Day 18) was 152 mm^3 and 213 mm^3 and 234 mm^3 and 255 mm^3 and 231 mm^3 and 228 mm^3 and 211 mm^3. The “% T/C” value (Day 22) was 54%, the “% TGI” value (Day 22) was 46% and the “Tumor Volume (mm^3), Mean” value (Day 22) was 252 mm^3. For the same compound, the “Tumor Volume (mm^3), individual animals” value (Day 22) was 144 mm^3 and 201 mm^3 and 246 mm^3 and 303 mm^3 and 252 mm^3 and 322 mm^3 and 296 mm^3, the “% T/C” value (Day 25) was 53% and the “% TGI” value (Day 25) was 47%. For the same compound, the “Tumor Volume (mm^3), Mean” value (Day 25) was 277 mm^3, the “Tumor Volume (mm^3), individual animals” value (Day 25) was 146 mm^3 and 216 mm^3 and 259 mm^3 and 356 mm^3 and 315 mm^3 and 353 mm^3 and 296 mm^3 and the “% T/C” value (Day 29) was 59%. For the same compound, the “% TGI” value (Day 29) was 41%, the “Tumor Volume, Mean” value (Day 29) was 371* mm^3 and the “Tumor Volume, individual animal” value (Day 29) was 162 mm^3 and 277 mm^3 and 399 mm^3 and 406 mm^3 and 439 mm^3 and died and 525 mm^3 and 387 mm^3. For the same compound, the “% T/C” value (Day 32) was 54%, the “% TGI” value (Day 32) was 46% and the “Tumor Volume, Mean” value (Day 32) was 389* mm^3. The “Tumor Volume, individual animal” value (Day 32) was 160 mm^3 and 318 mm^3 and 397 mm^3 and 385 mm^3 and 446 mm^3 and died and 584 mm^3 and 432 mm^3, the “% T/C” value (Day 36) was 50% and the “% TGI” value (Day 36) was 50%. The “Tumor Volume, Mean” value (Day 36) was 406* mm^3, the “Tumor Volume, individual animal” value (Day 36) was 94 mm^3 and 345 mm^3 and 390 mm^3 and 389 mm^3 and 506 mm^3 and died and 658 mm^3 and 459 mm^3 and the “% T/C” value (Day 39) was 47%. For the same compound, the “% TGI” value (Day 39) was 53%.
